Results: US9790180B2, “Piperidine derivatives as HDAC1/2 inhibitors” (Acetylon Pharmaceuticals, Inc., priority 2014, dated 2017)

Experiments:
Format in all cases: biochemical
HDAC3 = HDAC3 (Homo sapiens (Human), UniProt O15379); test: HDAC enzyme assay, HDAC3; conditions: 24 hours pre-incubation with enzyme; read-out: IC50 (nM) HDAC3
Description: (§1) Compounds for testing were diluted in DMSO to 50 fold the final concentration and a ten point three fold dilution series was made. The compounds were diluted in assay buffer (50 mM HEPES, pH 7.4, 100 mM KCl, 0.001% Tween-20, 0.05% BSA, 20 μM tris(2-carboxyethyl)phosphine) to 6 fold their final concentration. The HDAC enzymes (purchased from BPS Biosciences) were diluted to 1.5 fold their final concentration in assay buffer and pre-incubated with the compounds for 24 hours prior to addition of the substrate.
(§2) The substrate tripeptide substrate 3 (synthesized in house) for each enzyme was equal to the Km as determined by a substrate titration curve. The substrates were diluted in assay buffer at 6× their final concentration with 0.3 μM sequencing grade trypsin (Sigma). The substrate/trypsin mix was added to the enzyme/compound mix, the plate was shaken for 60 seconds and placed into a Spectramax M5 microtiter plate reader. The development of fluorescence was monitored for 30 min and the linear rate of the reaction was calculated. The IC50 was determined using Graph Pad Prism by a four parameter curve fit. The IC50 values obtained for the compounds of this invention are found in Table 1. Examples of the curves are found in FIGS. 1 and 4.

HDAC1 = HDAC1 (Homo sapiens (Human), UniProt Q13547); test: HDAC enzyme assay, HDAC1; conditions: 24 hours pre-incubation with enzyme; read-out: IC50 (nM) HDAC1
Description: as §1, §2

HDAC2 = HDAC2 (Homo sapiens (Human), UniProt Q92769); test: HDAC enzyme assay, HDAC2; conditions: 24 hours pre-incubation with enzyme; read-out: IC50 (nM) HDAC2
Description: as §1, §2

HDAC3, sequence (O15379 whole entry): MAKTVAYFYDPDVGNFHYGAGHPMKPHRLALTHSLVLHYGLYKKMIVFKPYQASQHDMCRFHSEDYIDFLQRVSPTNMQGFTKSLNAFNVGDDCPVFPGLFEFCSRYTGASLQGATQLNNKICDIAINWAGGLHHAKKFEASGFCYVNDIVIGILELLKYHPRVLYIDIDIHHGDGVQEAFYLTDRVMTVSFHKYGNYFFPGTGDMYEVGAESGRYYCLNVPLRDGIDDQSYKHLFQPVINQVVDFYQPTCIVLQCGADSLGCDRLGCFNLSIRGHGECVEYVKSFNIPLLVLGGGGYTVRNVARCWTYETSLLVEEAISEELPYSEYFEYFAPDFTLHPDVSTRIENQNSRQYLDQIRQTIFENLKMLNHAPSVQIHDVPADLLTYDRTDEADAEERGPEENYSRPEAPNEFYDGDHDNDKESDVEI
HDAC3, sequence (Q9Y618 395-489 partner): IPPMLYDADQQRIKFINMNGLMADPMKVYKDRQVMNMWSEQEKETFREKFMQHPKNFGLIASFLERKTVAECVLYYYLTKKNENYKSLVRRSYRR
HDAC1, sequence (Q13547 whole entry): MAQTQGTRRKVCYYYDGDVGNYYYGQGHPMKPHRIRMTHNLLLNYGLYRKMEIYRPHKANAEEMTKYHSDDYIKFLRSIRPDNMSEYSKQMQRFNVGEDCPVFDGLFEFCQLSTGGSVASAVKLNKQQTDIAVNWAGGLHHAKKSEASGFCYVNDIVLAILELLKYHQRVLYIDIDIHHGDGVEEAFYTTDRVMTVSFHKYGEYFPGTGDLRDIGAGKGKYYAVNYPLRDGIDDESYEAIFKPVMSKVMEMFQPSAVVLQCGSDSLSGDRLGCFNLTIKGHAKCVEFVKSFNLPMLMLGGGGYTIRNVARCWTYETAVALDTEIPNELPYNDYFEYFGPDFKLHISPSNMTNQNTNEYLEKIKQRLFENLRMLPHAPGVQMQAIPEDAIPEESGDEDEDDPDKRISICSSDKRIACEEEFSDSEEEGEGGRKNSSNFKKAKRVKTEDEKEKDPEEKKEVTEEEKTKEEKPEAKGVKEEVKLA
HDAC2, sequence (Q92769 whole entry): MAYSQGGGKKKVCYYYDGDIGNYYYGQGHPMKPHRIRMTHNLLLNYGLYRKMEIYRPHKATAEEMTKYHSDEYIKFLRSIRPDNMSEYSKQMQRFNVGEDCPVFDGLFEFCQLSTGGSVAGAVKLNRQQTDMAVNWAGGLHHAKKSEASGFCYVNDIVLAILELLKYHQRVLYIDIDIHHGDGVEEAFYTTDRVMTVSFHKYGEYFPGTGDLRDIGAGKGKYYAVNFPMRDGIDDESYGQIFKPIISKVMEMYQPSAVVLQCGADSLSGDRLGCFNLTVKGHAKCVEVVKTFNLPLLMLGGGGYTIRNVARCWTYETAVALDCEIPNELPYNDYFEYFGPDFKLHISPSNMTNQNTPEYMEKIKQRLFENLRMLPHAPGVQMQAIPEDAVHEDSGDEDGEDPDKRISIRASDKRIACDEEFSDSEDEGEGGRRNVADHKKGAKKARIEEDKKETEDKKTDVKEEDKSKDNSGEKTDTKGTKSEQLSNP

IC50 (HDAC3) [nM] | IC50 (HDAC1) [nM] | IC50 (HDAC2) [nM] | SMILES
929 | 118 | 703 | CC1(Nc2ncc(C(=O)Nc3cc(-c4cccs4)ccc3N)cn2)CCN(C(=O)Oc2ccccc2)CC1 [Compound 007]
124 | 9 | 37 | CC1(Nc2ncc(C(=O)Nc3cc(-c4cccs4)ccc3N)cn2)CCN(C(=O)N2CCOCC2)CC1 [Compound 008]
250 | 32 | 145 | Nc1ccc(-c2cccs2)cc1NC(=O)c1cnc(NC2CCN(C(=O)N3CCCCC3)CC2)nc1 [Compound 009]
 | 7.3 | 26 | CC1(Nc2ncc(C(=O)Nc3cc(-c4cccs4)ccc3N)cn2)CCN(C(=O)N2CCNCC2)CC1 [Compound 010]
201 | 8.5 | 32 | CN1CCN(C(=O)N2CCC(C)(Nc3ncc(C(=O)Nc4cc(-c5cccs5)ccc4N)cn3)CC2)CC1 [Compound 011]
1270 | 19 | 177 | CC1(Nc2ncc(C(=O)Nc3cc(-c4cccs4)ccc3N)cn2)CCN(C(=O)N2CCC(F)(F)CC2)CC1 [Compound 012]
412 | 4 | 14 | CC1(Nc2ccc(C(=O)Nc3cc(-c4cccs4)ccc3N)cc2)CCN(C(=O)N2CCCC2)CC1 [Compound 013]
> 2000 | 63 | 299 | CC1(Nc2ncc(C(=O)Nc3cc(-c4cccs4)ccc3N)cn2)CCN(C(=O)N2CCC(O)CC2)CC1 [Compound 014]
149 | 3.2 | 12 | CC1(Nc2ccc(C(=O)Nc3cc(-c4cccs4)ccc3N)cc2)CCN(C(=O)N2CCNCC2)CC1 [Compound 015]
145 | 3.2 | 13 | CN1CCN(C(=O)N2CCC(C)(Nc3ccc(C(=O)Nc4cc(-c5cccs5)ccc4N)cc3)CC2)CC1 [Compound 016]
1740 | 18 | 99 | CCC1(Nc2ccc(C(=O)Nc3cc(-c4cccs4)ccc3N)cc2)CCN(C(=O)N2CCOCC2)CC1 [Compound 017]
516 | 12 | 78 | Nc1ccc(-c2cccs2)cc1NC(=O)c1cnc(N2CCCC23CCN(C(=O)N2CCCC2)CC3)nc1 [Compound 018]
304 | 3.7 | 17 | Nc1ccc(-c2cccs2)cc1NC(=O)c1ccc(NC2CCN(C(=O)N3CCOCC3)CC2)cc1 [Compound 020]
555 | 15 | 72 | Nc1ccc(-c2cccs2)cc1NC(=O)c1ccc(NC2CCN(C(=O)C3CCCCC3)CC2)cc1 [Compound 021]
203 | 5 | 18 | Nc1ccc(-c2cccs2)cc1NC(=O)c1ccc(NC2CCN(C(=O)C3CCOCC3)CC2)cc1 [Compound 022]
267 | 3.9 | 20 | CCC1(Nc2ccc(C(=O)Nc3cc(-c4cccs4)ccc3N)cc2)CCN(C(=O)N2CCNCC2)CC1 [Compound 023]
287 | 6 | 26 | Nc1ccc(-c2cccs2)cc1NC(=O)c1ccc(NC2CCN(C(=O)C3(O)CCCCC3)CC2)cc1 [Compound 024]
355 | 7 | 26 | Nc1ccc(-c2cccs2)cc1NC(=O)c1ccc(NC2CCN(C(=O)C3(O)CCCC3)CC2)cc1 [Compound 025]
315 | 10 | 72 | CN1CCC(Nc2ncc(C(=O)Nc3cc(-c4cccs4)ccc3N)cn2)(c2ccccc2)CC1 [Compound 026]
> 2000 | 121 | 690 | Nc1ccc(-c2cccs2)cc1NC(=O)c1cnc(NC2CCN(c3ccccc3)CC2)nc1 [Compound 027]
> 2000 | 74 | 443 | Nc1ccc(-c2cccs2)cc1NC(=O)c1ccc(NC2CCN(c3ccccc3)CC2)cc1 [Compound 028]
541 |  | 17 | CC1(Nc2ccc(C(=O)Nc3cc(-c4ccncc4)ccc3N)cc2)CCN(C(=O)N2CCOCC2)CC1 [Compound 029]
